# Data: US9175024B2, “Platinum compound having amino or alkylamino-containing succinic acid derivatives as leaving group, preparation method thereof, and use thereof” (BEIJING FSWELCOME TECHNOLOGY DEVELOPMENT CO., LTD., priority 2011, dated 2015)
# Columns and labels:
# [1] = system: Testis cell ST; assay: MTT cytotoxicity, testis cell ST; assay type: cell-based; conditions: n = 6, Testis cell ST
# Protocol: (§1) Several kinds of tumor cells in exponential growth phase were prepared into single cell suspension, inoculated on 96 pore plat at the density of 4×10^4/hole, cultivated for 24 hours to enable to adhere to wall with 1640 culture medium containing 10% fetal calf serum (complete medium) at 37° C.; the final culture volume was 100 μl. Cell morphology was observed after culture for 24 hours.
# [2] = system: breast cancer MCF-7; assay: In vivo antitumor activity, breast cancer MCF-7 in nude mice; conditions: MCF-7 in female nude mice, 10 mg (platinum)/kg, once a week, 4 times, tumor weighed 4 weeks later
# [3] = system: Esophagus cancer ECA109; assay: MTT cytotoxicity, esophagus cancer ECA109; assay type: cell-based; conditions: n = 6, Esophagus cancer ECA109
# Protocol: as §1
# [4] = Solubility in water of the embodiment and contrast compounds
# [5] = system: Gastric cancer MGC803; assay: MTT cytotoxicity, gastric cancer MGC803; assay type: cell-based; conditions: n = 6, Gastric cancer MGC803
# Protocol: as §1
# [6] = system: Lung cancer H292; assay: MTT cytotoxicity, lung cancer H292; assay type: cell-based; conditions: n = 6, Lung cancer H292
# Protocol: as §1
# [7] = system: normal mice; assay: Acute toxic effect of platinum complex on normal mice (LD50, single intravenous administration); assay type: in vivo, Kunming mice; conditions: single intravenous administration in 5% glucose solution, 14 days observation, Bliss method
# Protocol: (§2) Kunming mice at 4˜6 weeks old and at the weight of 18˜22 g were taken, 50% male and 50% female. Embodiment platinum compound was dissolved with 5% glucose solution. […] Mortality and toxicity were observed after administration, totally observing 14 days, LD50 value was calculated with Bliss method according to mortality.
# [8] = physchem; conditions: water
# [9] = Acute toxic effect of platinum complex on normal mice (LD50, single intravenous administration); assay type: in vivo, Kunming mice; conditions: both sexes, Kunming, mouse, in vivo; single intravenous administration in 5% glucose solution, 14 days observation, Bliss method
# Protocol: as §2
# [10] = system: Colon cancer SW480; assay: MTT cytotoxicity, colon cancer SW480; assay type: cell-based; conditions: n = 6, Colon cancer SW480
# Protocol: as §1
# [11] = system: Lewis lung cancer; assay: MTT cytotoxicity, Lewis lung cancer; assay type: cell-based; conditions: n = 6, Lewis lung cancer
# Protocol: as §1
# [12] = system: Pulmonary epithelial cell BEAS-2B; assay: MTT cytotoxicity, pulmonary epithelial cell BEAS-2B; assay type: cell-based; conditions: n = 6, Pulmonary epithelial cell BEAS-2B
# Protocol: as §1
Compound,IC50 [1] [µM],Tumor inhibition rate (x ± SD) [2],IC50 [3] [µM],solubility [4] [mg/mL],IC50 [5] [µM],IC50 [6] [µM],LD50 value [7] [mmol/kg],solubility [8] [mg/mL],LD50 at 14 days [9] [µmol/kg],IC50 [10] [µM],IC50 [11] [µM],IC50 [12] [µM]
"CCN(CC)CCC1CC(=O)[O][Pt]2([NH]CC3(CCOCC3)C[NH]2)[O]C1=O (stereo not drawn) [Compound 26, [2-(2-diethylaminoethyl)-succinato].[Cis-1,3-(2,2-(4-oxacyclohexyl))-propyldiamine]platinum (II)]",44,76.4 ± 14.85 9%,32,165,35,47,0.526,–,–,–,–,–
"CCCN(CCC)CCCC1CC(=O)[O][Pt]([NH2])([NH2])[O]C1=O (stereo not drawn) [Compound 6, [2-(3-di-n-propylamino propyl)-succinato].[Cis-diamine]platinum (II)]",–,–,–,–,–,–,–,130,449,–,–,–
"CCN(CC)CCC(CC(=O)[O-])C(=O)[O-].NCC1CCC1CN.[Pt+2] (racemic) [Compound 24, [2-(2-diethylamino ethyl)-succinato].[Cis-1,4-(trans-2,3-cyclobutyl)-butanediamine]platinum (II)]",12,69.3 ± 10.13 9%,71,176,119,25,0.525,–,–,–,–,–
"CN(C)CCCC1CC(=O)[O][Pt]([NH2])([NH2])[O]C1=O (stereo not drawn) [Compound 3, [2-(3-dimethylamino propyl)-succinato].[Cis-diamine]platinum (II)]",–,–,–,–,–,–,–,150,521,–,–,–
"CCCN(CCC)CCCC(CC(=O)[O-])C(=O)[O-].NCCCCN.[Pt+2] (stereo not drawn) [Compound 20, [2-(3-di-n-propylaminopropyl)-succinato].[Cis-1,4-butyldiamine]platinum (II)]",22,66.7 ± 10.61 9%,13,162,66,59,0.513,–,–,–,–,–
"CCN(CC)CCCC(CC(=O)[O-])C(=O)[O-].NC1CC1N.[Pt+2] (racemic) [Compound 17, [2-(3-diethylamino propyl)-succinato].[Cis-(1,2-trans-cyclopropyldiamine)]platinum (II)]",51,82.5 ± 11.34 9%,72,195,13,31,0.581,–,–,–,–,–
"[NH2][Pt]1([NH2])[O]C(=O)CC(CCCN2CCCCC2)C(=O)[O]1 (stereo not drawn) [Compound 7, [2-(3-(1-piperidyl)-propyl)-succinato].[Cis-diamine]platinum (II)]",–,–,–,–,–,–,–,139,623,–,–,–
"CCN(CC)CCCCC(CC(=O)[O-])C(=O)[O-].NCCN.[Pt+2] (stereo not drawn) [Compound 28, [2-(4-diethylamino butyl)-succinato].[Cis-1,2-ethylenediamine]platinum (II) toluenesulfonate]",138,76.4 ± 9.78 9%,56,187,162,99,0.612,–,–,–,–,–
"CCN(CC)CCCC(CC(=O)[O-])C(=O)[O-].NC1CCCC1N.[Pt+2] (racemic) [Compound 15, [2-(3-diethylamino propyl)-succinato].[Cis-(1,2-trans-cyclopentyldiamine)]platinum (II)]",–,73.5 ± 12.31 9%,–,151,–,145,0.528,–,–,32,51,15
"[NH2][Pt]1([NH2])[O]C(=O)CC(CCCN2CCCC2)C(=O)[O]1 (stereo not drawn) [Compound 8, [2-(3-(1-pyrrolidyl)-propyl)-succinato].[Cis-diamine]platinum (II)]",–,–,–,–,–,–,–,135,605,–,–,–
"CCN(CC)CCC1CC(=O)[O][Pt]2([NH]CCC[NH]2)[O]C1=O (stereo not drawn) [Compound 19, [2-(2-diethylaminoethyl)-succinato].[Cis-1,3-propyldiamine]platinum (II)]",12,65.3 ± 9.15 9%,8,200,117,102,0.454,–,–,–,–,–
"CN(C)CCC1CC(=O)[O][Pt]2([NH]CC(CO)(CO)C[NH]2)[O]C1=O (stereo not drawn) [Compound 22, [2-(2-dimethyl amino ethyl)-succinato].[Cis-1,3-(2,2-dihydroxytmethyl)-propyldiamine]platinum (II)]",52,70.8 ± 10.12 9%,17,205,15,65,0.452,–,–,–,–,–
"CNCCC1CC(=O)[O][Pt]([NH2])([NH2])[O]C1=O (stereo not drawn) [Compound 1, [2-(2-methylaminoethyl)-succinato].[Cis-diamine]platinum (II)]",–,–,–,–,–,–,–,208,523,–,–,–
"CCN(CC)CCCC1CC(=O)[O][Pt]2([NH]C3CCC3[NH]2)[O]C1=O (stereo not drawn) [Compound 16, [2-(3-diethylamino propyl)-succinato].[Cis-(1,2-trans-cyclobutyldiamine)]platinum (II)]",–,70.4 ± 10.81 9%,–,186,–,8,0.623,–,–,84,33,45
"CCCN(CCC)CCCC(CC(=O)[O-])C(=O)[O-].N[C@@H]1CCCC[C@H]1N.[Pt+2] (stereo not drawn) [Compound 14, [2-(3-di-n-propylamino propyl)-succinato].[Cis-(1,2-trans-cyclohexyldiamine)]platinum (II)]",–,70.1 ± 11.55 9%,–,–,–,9,0.467,–,–,51,37,8
"CCN(CC)CCC(CC(=O)[O-])C(=O)[O-].NC1CCC(N)CC1.[Pt+2] (stereo not drawn) [Compound 25, [2-(2-diethylaminoethyl)-succinato].[Cis-1,4-cyclohexyldiamine]platinum (II)]",102,66.9 ± 9.49 9%,116,125,96,106,0.459,–,–,–,–,–
"CCN(CC)CCC1CC(=O)[O][Pt]([NH2])([NH2])[O]C1=O (stereo not drawn) [Compound 5, [2-(2-diethylaminoethyl)-succinato].[Cis-diamine]platinum (II)]",–,–,–,–,–,–,–,166,652,–,–,–
"CN(C)CCC(CC(=O)[O-])C(=O)[O-].NCCN.[Pt+2] (stereo not drawn) [Compound 18, [2-(2-dimethylaminoethyl)-succinato].[Cis-1,2-ethyldiamine]platinum (II)]",10,71.8 ± 12.01 9%,62,226,121,31,0.532,–,–,–,–,–
"CCN(CC)CCCCC1CC(=O)[O][Pt]([NH2])([NH2])[O]C1=O (stereo not drawn) [Compound 27, [2-(4-diethylamino butyl)-succinato].[Cis-diamine]platinum (II) acetate]",–,–,–,–,–,–,–,143,557,–,–,–
"CCN(CC)CCCCC1CC(=O)[O][Pt]2([NH]C3CCCCC3[NH]2)[O]C1=O.O=P(O)(O)O (stereo not drawn) [Compound 29, [2-(4-diethylamino butyl)-succinato].[Cis-(1,2-trans-cyclohexyldiamine)]platinum (II) phosphate]",5,82.2 ± 10.82 9%,6,–,7,3,0.698,–,–,–,–,–
"NCCCC1CC(=O)[O][Pt]([NH2])([NH2])[O]C1=O (stereo not drawn) [Compound 4, [2-(3-amino propyl)-succinato].[Cis-diamine]platinum (II)]",–,–,–,–,–,–,–,155,556,–,–,–
"CCN(CC)CCC1CC(=O)[O][Pt]2([NH]C(CO)C(CO)[NH]2)[O]C1=O (stereo not drawn) [Compound 21, [2-(2-diethyl amino ethyl)-succinato].[Cis-1,2-(1,2-dihydroxymethyl)-ethyldiamine]platinum (II)]",143,68.3 ± 10.88 9%,84,176,109,21,0.681,–,–,–,–,–
"CN(C)CCC(CC(=O)[O-])C(=O)[O-].NCC1CCC1CN.[Pt+2] (racemic) [Compound 23, [2-(2-dimethylaminoethyl)-succinato].[Cis-1,4-(trans-2,3-cyclobutyl)-butyldiamine]platinum (II)]",18,85.1 ± 10.37 9%,102,165,146,51,0.512,–,–,–,–,–
